Laboratory results as given in PMC6823370, “A novel nucleoside rescue metabolic pathway may be responsible for therapeutic effect of orally administered cordycepin” (Scientific Reports, 2019).
Where two headings read alike, the source gives them in different places.

How the values were obtained:
[1] = Biorelevant solubility (FaSSGF, FaSSIF, FeSSIF); type: physicochemical; details: thermodynamic from solid, compared with reported water solubility
Procedure: The three biorelevant fluids of fasted state simulated gastric fluid (FaSSGF, pH 1.6), fasted state simulated intestinal fluid (FaSSIF, pH 6.5) and fed state simulated intestinal fluid (FeSSIF, pH 5.0) were prepared according to previously reported compositions. The test mixtures containing biorelevant fluids and excessive amount of cordycepin were shaken at 250 rpm, 37 °C for 2 h in the shaking incubator. The mixtures were then filtered using Costar Spin-X Centrifuge Tubes (Fisher Scientific, Loughborough, UK) at 2400 g for 5 min. The filtrate was subjected to analysis by HPLC-UV. The experiments were conducted in quadruplicates.
Samples from studies of plasma stability, protein binding, biorelevant solubility and liver microsomal stability were subjected to liquid-liquid extraction and HPLC-UV analysis. To 100 µL of sample, internal standard (2′-deoxyadenosine) was spiked at 10 µg/mL and 300 µL of 0.1 M NaOH was added. Extraction solvent (3 mL) of ethyl acetate-isopropyl alcohol (85:15, v/v) was added and vortex-mixed for 10 min. Samples were then centrifuged at 1160 g for 5 min and the supernatant was transferred and dried under N2 gas. Dried samples were reconstituted with 100 uL of deionised distilled water (DDW) and 40 µL was injected into the HPLC-UV. The HPLC-UV setup was adopted from a validated method[22] with addition of a gradient scheme to elute the impurities from samples. Waters Alliance 2695 module with Waters 996 PDA detector was used for the HPLC-UV system with Capcell Pak C18 3 µm, 4.6 × 150 mm as the stationary phase. Mobile phase was a mixture of acetonitrile (A) and DDW (B) at flow rate 0.8 mL/min with a gradient scheme of the following: 0–9 min, B 94%; 9–14 min, B decreased to 20%; 14–24 min, B 20%; 24–26 min, B increased to 94%; and 26–35 min, B 94%. Calibration curves were constructed at a range of 10 – 20000 ng/mL and chromatograms were obtained at 259 nm of wavelength.

[2] = Sample storage stability of cordycepin in rat plasma containing pentostatin; type: in vitro ADME; details: for Autosampler (24 h, 4°C) sample stability: processed samples; for Freeze-thaw (3 cycles) sample stability / Long-term (4 weeks, -80°C) sample stability / Long-term (5 days, -80°C) sample stability / Short-term (4 h, RT) sample stability: rat plasma with 10 µM pentostatin
Procedure: Stability of cordycepin was tested in different conditions. […] Samples withdrawn at pre-determined time points were prepared and analysed for stability and degradation rate of cordycepin in rat plasma.
Sample storage stability studies were conducted with QC samples (LQC, MQC and HQC; 5 replicates for each condition). […] Short-term (benchtop) stability was tested after storing spiked QC samples for 4 h at room temperature. Long-term stability was tested in storage condition of -80 °C for 5 days and 4 weeks. Freeze-thaw cycle stability was tested after undergoing three cycles between -80 °C and room temperature. Autosampler stability was tested by analysing processed QC samples after storage at 4 °C for 24 h. All stability samples were quantified with freshly prepared calibration curve samples. Stock solution stability was tested by analysing five different aliquots of 1000 ng/mL working standard solution stored for 6 h at room temperature and comparing to a fresh working standard solution.

[3] = Plasma protein binding, ultrafiltration, rat plasma; type: in vitro ADME; details: read-out: fraction unbound (Fub) in plasma
Procedure: Cordycepin was spiked into the plasma to give concentrations of 100, 500, 1000 and 5000 ng/mL, and the samples (300 µL) were incubated in the shaking incubator at 250 rpm and 37 °C for 1 h. Following incubation, 100 µL was withdrawn and analysed for Ct. The remaining sample was transferred to a filter device (Amicon Ultra-0.5 Centrifugal Filter Units, MWCO 3000, Merck Millipore, Cork, Ireland) and was centrifuged at 14,000 g for 10 min at room temperature. Filtrate was collected and analysed for Cf. The fraction unbound in plasma (Fub) was calculated by the equation: Cf/Ct × 100 = Fub. Non-specific binding of cordycepin to the filter device was tested at the same concentration range using phosphate buffered saline (PBS) instead of plasma. Experiments were conducted in quadruplicates.
Samples from studies of plasma stability, protein binding, biorelevant solubility and liver microsomal stability were subjected to liquid-liquid extraction and HPLC-UV analysis. To 100 µL of sample, internal standard (2′-deoxyadenosine) was spiked at 10 µg/mL and 300 µL of 0.1 M NaOH was added. Extraction solvent (3 mL) of ethyl acetate-isopropyl alcohol (85:15, v/v) was added and vortex-mixed for 10 min. Samples were then centrifuged at 1160 g for 5 min and the supernatant was transferred and dried under N2 gas. […]

## Nc1ncnc2c1ncn2[C@@H]1O[C@H](CO)C[C@H]1O [cordycepin, 3′-deoxyadenosine]
[1]; FaSSGF, fassgf or other biorelevant, pH 1.6, 37 °C, read-out: solubility in FaSSGF
  solubility at 2 h: > 5000 µg/mL
[1]; FaSSIF, pH 6.5, 37 °C, read-out: solubility in FaSSIF
  solubility at 2 h: > 5000 µg/mL
[1]; FeSSIF, pH 5.0, 37 °C, read-out: solubility in FeSSIF
  solubility at 2 h: > 5000 µg/mL
[2]; HQC 4000 ng/mL
  Autosampler (24 h, 4°C) sample stability: 100.4 ± 3.4
  Freeze-thaw (3 cycles) sample stability: 106.7 ± 7.4
  Long-term (4 weeks, -80°C) sample stability: 103.8 ± 1.5
  Long-term (5 days, -80°C) sample stability: 98.6 ± 5.4
  Short-term (4 h, RT) sample stability: 107.4 ± 2.9
[2]; LQC 5 ng/mL
  Autosampler (24 h, 4°C) sample stability: 113.8 ± 8.9
  Freeze-thaw (3 cycles) sample stability: 104.5 ± 7.4
  Long-term (4 weeks, -80°C) sample stability: 93.5 ± 7.0
  Long-term (5 days, -80°C) sample stability: 107.4 ± 3.8
  Short-term (4 h, RT) sample stability: 104.7 ± 9.2
[2]; MQC 80 ng/mL
  Autosampler (24 h, 4°C) sample stability: 91.6 ± 3.6
  Freeze-thaw (3 cycles) sample stability: 113.1 ± 13.1
  Long-term (4 weeks, -80°C) sample stability: 113.5 ± 3.3
  Long-term (5 days, -80°C) sample stability: 110.0 ± 3.3
  Short-term (4 h, RT) sample stability: 98.2 ± 7.3
[3]
  fraction unbound at 1 h: > 0.8
